This passage reports inhibition in vivo and inhibition results from ChEMBL document CHEMBL6092184, “Talauromides A-G, Nitrogen-Containing Heptacyclic Oligophenalenone Dimers from the Soil Fungus Talaromyces stipitatus BMC-16” (2024).

As usually defined, the inhibition in vivo is the relative decrease from the control value, in per cent.

The source made the active and inactive calls. The calls are words filed in the database; no cut-off is given here.

A short description of assay [1]: In-vivo inhibition of BIO-induced Wnt/beta-catenin signaling pathway in zebrafish embryo assessed as reversal of eyeless phenotype to small and normal like eyes at 20 uM measured at 48 hrs post fertilization. In kind it is functional. The settings on record: Danio rerio.
Another assay deals with HEK293T. As to the kind of experiment: Inhibition of Wnt/beta-catenin signaling pathway in HEK293T cells assessed as downregulation of BIO-induced nonphosphorylated beta-catenin level at 20 uM incubated for 12 hrs by immunoblotting analysis. The settings on record: Homo sapiens. In kind it is cell-based.

Turning to `CC(=O)O[C@H]1[C@@H]2C(=O)c3c(C)cc(O)c4c3[C@@]1(COC4=O)c1c(O)c3c4c(c(O)cc(C)c4c12)C(=O)O3`, in assay [1], the inhibition in vivo at 20 µM was 80%. Moreover, the inhibition result in the assay with HEK293T is “Active”.

For `Cc1cc(O)c2c3c1C(=O)[C@@H]1C4=C(C(=O)c5cn(CCCC(=O)O)c(=O)c6c(O)cc(C)c4c56)[C@@]3(COC2=O)[C@H]1O`, the inhibition in vivo at 20 µM in assay [1] turned out to be 96.6%. Also, the inhibition result in the assay on HEK293T is “Active”.

Regarding `CC(=O)O[C@H]1[C@@H]2C(=O)c3c(C)cc(O)c4c3[C@@]1(COC4=O)c1c(O)c3c4c(c(O)cc(C)c4c12)C(=O)OC3`, the inhibition in vivo at 20 µM in assay [1] is 100%. Also, the inhibition result in the assay with HEK293T was “Active”.
